Source: ChEMBL document CHEMBL4265983, “Discovery and biological evaluation of thiobarbituric derivatives as potent p300/CBP inhibitors” (Bioorg Med Chem, 2018)
Activity calls are given as the source filed them. The calls are words filed in the database; no cut-off is given here.

What was measured:
[1] = molecular target: Histone acetyltransferase p300 (Homo sapiens, UniProt Q09472); test: Inhibition of p300 (unknown origin) using human histone as substrate measured after 60 mins in presence of [3H]-acetyl-CoA by microbeta counting method
[2] = molecular target: Histone acetyltransferase KAT5 (Homo sapiens, UniProt Q92993); test: Inhibition of Tip60 (unknown origin)
[3] = molecular target: T1, CREB-binding protein/Histone acetyltransferase p300 (Homo sapiens) (UniProt Q09472+Q92793); test: Inhibition of P300/CBP in human MV4-11 cells assessed as downregulation of CCNB1 RNA expression at 20 uM after 12 hrs by RNA-seq analysis; type: cell-based
[4] = molecular target: T1, CREB-binding protein/Histone acetyltransferase p300 (Homo sapiens); test: Inhibition of P300/CBP in human MV4-11 cells assessed as upregulation of SESN2 RNA expression at 20 uM after 12 hrs by RT-PCR analysis; type: cell-based
[5] = molecular target: T1, CREB-binding protein/Histone acetyltransferase p300 (Homo sapiens); test: Inhibition of P300/CBP acetyl transferase activity in human MV4-11 cells assessed as reduction in acetylated H3K18 levels after 24 hrs in presence of SAHA by Western blot analysis; type: cell-based
[6] = molecular target: T1, CREB-binding protein/Histone acetyltransferase p300 (Homo sapiens); test: Inhibition of P300/CBP in human MV4-11 cells assessed as downregulation of MYC RNA expression at 20 uM after 12 hrs by RT-PCR analysis; type: cell-based
Jurkat = test: Antiproliferative activity against human Jurkat cells after 72 hrs by CellTiter-Glo assay
MV4-11 [7] = test: Cell cycle arrest in human MV4-11 cells assessed as accumulation at G1 phase up to 20 uM after 24 hrs by propidium iodide/RNase staining-based flow cytometric analysis; type: functional
[8] = molecular target: T1, CREB-binding protein/Histone acetyltransferase p300 (Homo sapiens); test: Inhibition of P300/CBP in human MV4-11 cells assessed as upregulation of GADD45B RNA expression at 20 uM after 12 hrs by RT-PCR analysis; type: cell-based
CCRF-CEM = test: Antiproliferative activity against human CEM cells after 72 hrs by CellTiter-Glo assay
MV4-11 [9] = test: Antitumor activity against human MV4-11 cells xenografted in ip dosed nude mouse assessed as reduction in tumor growth rate administered every 2 days for 20 days; type: functional, organism-based
MV4-11 [10] = test: Antitumor activity against human MV4-11 cells xenografted in ip dosed nude mouse assessed as increase in apoptotic cells administered every 2 days for 20 days by TUNEL assay; type: functional, organism-based
[11] = molecular target: T1, CREB-binding protein/Histone acetyltransferase p300 (Homo sapiens); test: Inhibition of P300/CBP in human MV4-11 cells assessed as upregulation of SESN2 RNA expression at 20 uM after 12 hrs by RNA-seq analysis; type: cell-based
KOPN-8 = test: Antiproliferative activity against human KOPN8 cells after 72 hrs by CellTiter-Glo assay; settings: KOPN-8, 72 h
MV4-11 [12] = test: Induction of apoptosis in human MV4-11 cells up to 20 uM after 48 hrs by Annexin V-FITC/propidium iodide staining-based flow cytometric analysis; type: functional, cell-based
MOLT-3 = test: Antiproliferative activity against human MOLT3 cells after 72 hrs by CellTiter-Glo assay; settings: MOLT-3, 72 h
[13] = molecular target: T1, CREB-binding protein/Histone acetyltransferase p300 (Homo sapiens); test: Inhibition of P300/CBP in human MV4-11 cells assessed as downregulation of HIF1A RNA expression at 20 uM after 12 hrs by RT-PCR analysis; type: cell-based
CREB-binding protein = CREB-binding protein (Homo sapiens, UniProt Q92793); test: Inhibition of CBP (unknown origin) in presence of [3H]-acetyl-CoA
THP-1 = test: Antiproliferative activity against human THP1 cells after 72 hrs by CellTiter-Glo assay; settings: THP-1, 72 h
[14] = molecular target: T1, CREB-binding protein/Histone acetyltransferase p300 (Homo sapiens); test: Inhibition of P300/CBP acetyl transferase activity in human Kasumi-1 cells assessed as reduction in acetylated H3K18 levels after 24 hrs in presence of SAHA by Western blot analysis; type: cell-based
[15] = molecular target: T1, CREB-binding protein/Histone acetyltransferase p300 (Homo sapiens); test: Inhibition of P300/CBP in human MV4-11 cells assessed as upregulation of BAX RNA expression at 20 uM after 12 hrs by RT-PCR analysis; type: cell-based
Kasumi 1 = test: Antiproliferative activity against human Kasumi-1 cells after 72 hrs by CellTiter-Glo assay; settings: Kasumi 1, 72 h
K562 = test: Antiproliferative activity against human K562 cells after 72 hrs by CellTiter-Glo assay; settings: K562, 72 h
[16] = molecular target: T1, CREB-binding protein/Histone acetyltransferase p300 (Homo sapiens); test: Inhibition of P300/CBP in human MV4-11 cells assessed as downregulation of CCNB1 RNA expression at 20 uM after 12 hrs by RT-PCR analysis; type: cell-based
[17] = molecular target: T1, CREB-binding protein/Histone acetyltransferase p300 (Homo sapiens); test: Inhibition of P300/CBP in human MV4-11 cells assessed as downregulation of CCNA2 RNA expression at 20 uM after 12 hrs by RT-PCR analysis; type: cell-based
MV4-11 [18] = test: Induction of apoptosis in human MV4-11 cells assessed as increase in cleaved PARP levels after 24 hrs by Western blot analysis; type: functional, cell-based
[19] = molecular target: T1, CREB-binding protein/Histone acetyltransferase p300 (Homo sapiens); test: Inhibition of P300/CBP in human MV4-11 cells assessed as downregulation of CCNA2 RNA expression at 20 uM after 12 hrs by RNA-seq analysis; type: cell-based
MV4-11 [20] = test: Induction of apoptosis in human MV4-11 cells assessed as apoptotic cells at 6.7 uM after 48 hrs by Annexin V-FITC/propidium iodide staining-based flow cytometric analysis; type: functional
RS4-11 = test: Antiproliferative activity against human RS4:11 cells after 72 hrs by CellTiter-Glo assay; settings: RS4-11, 72 h
[21] = molecular target: T1, CREB-binding protein/Histone acetyltransferase p300 (Homo sapiens); test: Inhibition of P300/CBP in human MV4-11 cells assessed as downregulation of HIF1A RNA expression at 20 uM after 12 hrs by RNA-seq analysis; type: cell-based
MV4-11 [22] = test: Antiproliferative activity against human MV4-11 cells after 72 hrs by CellTiter-Glo assay; settings: MV4-11, 72 h
[23] = molecular target: T1, CREB-binding protein/Histone acetyltransferase p300 (Homo sapiens); test: Inhibition of P300/CBP in human MV4-11 cells assessed as downregulation of RRM2B RNA expression at 20 uM after 12 hrs by RT-PCR analysis; type: cell-based
MV4-11 [24] = test: Antitumor activity against human MV4-11 cells xenografted in nude mouse assessed as reduction in tumor cell proliferation at 25 to 50 mg/kg, ip administered every 2 days for 20 days by KI-67-staining based microscopic analysis; type: functional, organism-based
MV4-11 [25] = test: Induction of apoptosis in human MV4-11 cells assessed as increase in cleaved caspase3 levels after 24 hrs by Western blot analysis; type: functional, cell-based
MOLT-4 = test: Antiproliferative activity against human MOLT4 cells after 72 hrs by CellTiter-Glo assay; settings: MOLT-4, 72 h
MV4-11 [26] = test: Induction of apoptosis in human MV4-11 cells assessed as increase in cleaved caspase9 levels after 24 hrs by Western blot analysis; type: functional, cell-based
[27] = molecular target: T1, CREB-binding protein/Histone acetyltransferase p300 (Homo sapiens); test: Inhibition of P300/CBP in human MV4-11 cells assessed as change in DEPDC1 mRNA expression at 20 uM after 12 hrs by RNA-seq analysis; type: cell-based
[28] = molecular target: T1, CREB-binding protein/Histone acetyltransferase p300 (Homo sapiens); test: Inhibition of P300/CBP in human MV4-11 cells assessed as upregulation of GADD45B RNA expression at 20 uM after 12 hrs by RNA-seq analysis; type: cell-based
[29] = molecular target: T1, CREB-binding protein/Histone acetyltransferase p300 (Homo sapiens); test: Inhibition of P300/CBP in human MV4-11 cells assessed as downregulation of MYC RNA expression at 20 uM after 12 hrs by RNA-seq analysis; type: cell-based
[30] = molecular target: T1, CREB-binding protein/Histone acetyltransferase p300 (Homo sapiens); test: Inhibition of P300/CBP in human MV4-11 cells assessed as downregulation of RRM2B RNA expression at 20 uM after 12 hrs by RNA-seq analysis; type: cell-based
[31] = molecular target: T1, CREB-binding protein/Histone acetyltransferase p300 (Homo sapiens); test: Inhibition of P300/CBP in human MV4-11 cells assessed as upregulation of BAX RNA expression at 20 uM after 12 hrs by RNA-seq analysis; type: cell-based
[32] = molecular target: T1, CREB-binding protein/Histone acetyltransferase p300 (Homo sapiens); test: Inhibition of P300/CBP in human MV4-11 cells assessed as change in UHRF1 mRNA expression at 20 uM after 12 hrs by RNA-seq analysis; type: cell-based
[33] = molecular target: T1, CREB-binding protein/Histone acetyltransferase p300 (Homo sapiens); test: Inhibition of P300/CBP acetyl transferase activity in human Kasumi-1 cells assessed as reduction in acetylated H3K18 levels at 2.2 to 60 uM after 24 hrs in presence of SAHA by Western blot analysis; type: cell-based
[34] = molecular target: T1, CREB-binding protein/Histone acetyltransferase p300 (Homo sapiens); test: Inhibition of P300/CBP acetyl transferase activity in human MV4-11 cells assessed as reduction in acetylated H3K18 levels at 2.2 to 60 uM after 24 hrs in presence of SAHA by Western blot analysis; type: cell-based

T1 sequence (Q09472 whole entry, looked up): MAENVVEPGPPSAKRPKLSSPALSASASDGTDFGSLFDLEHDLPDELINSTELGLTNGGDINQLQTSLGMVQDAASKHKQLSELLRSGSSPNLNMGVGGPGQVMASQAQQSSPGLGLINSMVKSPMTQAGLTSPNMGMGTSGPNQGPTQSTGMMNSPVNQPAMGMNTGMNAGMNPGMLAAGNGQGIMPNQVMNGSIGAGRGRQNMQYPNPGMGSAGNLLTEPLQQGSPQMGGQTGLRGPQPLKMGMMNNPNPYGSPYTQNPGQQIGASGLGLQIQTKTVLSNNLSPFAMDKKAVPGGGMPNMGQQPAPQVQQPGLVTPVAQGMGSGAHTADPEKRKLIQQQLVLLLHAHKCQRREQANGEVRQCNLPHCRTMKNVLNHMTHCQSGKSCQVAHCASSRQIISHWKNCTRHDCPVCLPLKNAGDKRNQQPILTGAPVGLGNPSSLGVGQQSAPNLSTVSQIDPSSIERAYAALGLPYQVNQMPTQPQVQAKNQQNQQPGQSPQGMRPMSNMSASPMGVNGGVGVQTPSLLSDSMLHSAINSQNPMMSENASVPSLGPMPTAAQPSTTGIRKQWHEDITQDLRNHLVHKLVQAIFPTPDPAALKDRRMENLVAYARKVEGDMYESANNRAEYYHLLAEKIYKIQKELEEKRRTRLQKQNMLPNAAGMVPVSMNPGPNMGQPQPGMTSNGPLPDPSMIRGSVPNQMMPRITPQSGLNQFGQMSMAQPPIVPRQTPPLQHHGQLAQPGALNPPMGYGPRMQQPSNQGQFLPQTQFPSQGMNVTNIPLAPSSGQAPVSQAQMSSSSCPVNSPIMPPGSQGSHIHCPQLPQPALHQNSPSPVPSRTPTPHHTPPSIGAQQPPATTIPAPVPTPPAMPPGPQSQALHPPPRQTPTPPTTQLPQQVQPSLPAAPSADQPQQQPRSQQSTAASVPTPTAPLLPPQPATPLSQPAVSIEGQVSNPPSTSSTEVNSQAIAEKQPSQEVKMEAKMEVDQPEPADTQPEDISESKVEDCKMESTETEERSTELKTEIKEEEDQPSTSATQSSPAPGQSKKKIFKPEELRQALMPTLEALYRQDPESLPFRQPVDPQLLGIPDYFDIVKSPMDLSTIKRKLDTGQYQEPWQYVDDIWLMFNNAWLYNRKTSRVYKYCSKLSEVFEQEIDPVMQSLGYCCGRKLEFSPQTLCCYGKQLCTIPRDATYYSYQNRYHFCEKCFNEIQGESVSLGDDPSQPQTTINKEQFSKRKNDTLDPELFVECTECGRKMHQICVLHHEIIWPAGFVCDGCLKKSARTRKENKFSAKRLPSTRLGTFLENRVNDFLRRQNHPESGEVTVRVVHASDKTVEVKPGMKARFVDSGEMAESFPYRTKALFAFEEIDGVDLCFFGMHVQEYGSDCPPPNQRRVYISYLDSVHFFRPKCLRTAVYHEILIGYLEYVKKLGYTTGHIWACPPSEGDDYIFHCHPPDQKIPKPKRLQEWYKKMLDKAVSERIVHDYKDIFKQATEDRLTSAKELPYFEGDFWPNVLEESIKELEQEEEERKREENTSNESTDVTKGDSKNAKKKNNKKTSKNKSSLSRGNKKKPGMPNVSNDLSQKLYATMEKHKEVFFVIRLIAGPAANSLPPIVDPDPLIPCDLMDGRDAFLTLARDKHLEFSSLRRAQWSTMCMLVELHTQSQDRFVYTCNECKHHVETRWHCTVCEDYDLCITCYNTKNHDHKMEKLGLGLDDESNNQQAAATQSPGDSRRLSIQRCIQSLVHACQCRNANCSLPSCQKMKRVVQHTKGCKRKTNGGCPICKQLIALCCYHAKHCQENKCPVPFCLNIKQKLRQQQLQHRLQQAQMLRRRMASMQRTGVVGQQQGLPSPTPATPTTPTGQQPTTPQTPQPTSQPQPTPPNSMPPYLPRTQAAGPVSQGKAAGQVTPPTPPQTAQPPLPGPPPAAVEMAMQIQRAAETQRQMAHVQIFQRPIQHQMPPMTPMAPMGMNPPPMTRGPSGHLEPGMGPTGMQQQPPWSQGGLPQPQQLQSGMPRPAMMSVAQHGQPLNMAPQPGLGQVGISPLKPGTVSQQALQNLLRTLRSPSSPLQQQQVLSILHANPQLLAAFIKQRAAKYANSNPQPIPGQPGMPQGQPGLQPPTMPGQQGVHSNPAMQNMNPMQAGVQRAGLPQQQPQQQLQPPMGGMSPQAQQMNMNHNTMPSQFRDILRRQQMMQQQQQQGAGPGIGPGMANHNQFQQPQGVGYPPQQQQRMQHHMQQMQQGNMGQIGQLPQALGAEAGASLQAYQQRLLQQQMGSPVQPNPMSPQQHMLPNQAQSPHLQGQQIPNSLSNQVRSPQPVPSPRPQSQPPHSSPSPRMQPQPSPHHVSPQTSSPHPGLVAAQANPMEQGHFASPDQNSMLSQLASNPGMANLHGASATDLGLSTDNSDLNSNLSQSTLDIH
T1 sequence (Q92793 whole entry, looked up): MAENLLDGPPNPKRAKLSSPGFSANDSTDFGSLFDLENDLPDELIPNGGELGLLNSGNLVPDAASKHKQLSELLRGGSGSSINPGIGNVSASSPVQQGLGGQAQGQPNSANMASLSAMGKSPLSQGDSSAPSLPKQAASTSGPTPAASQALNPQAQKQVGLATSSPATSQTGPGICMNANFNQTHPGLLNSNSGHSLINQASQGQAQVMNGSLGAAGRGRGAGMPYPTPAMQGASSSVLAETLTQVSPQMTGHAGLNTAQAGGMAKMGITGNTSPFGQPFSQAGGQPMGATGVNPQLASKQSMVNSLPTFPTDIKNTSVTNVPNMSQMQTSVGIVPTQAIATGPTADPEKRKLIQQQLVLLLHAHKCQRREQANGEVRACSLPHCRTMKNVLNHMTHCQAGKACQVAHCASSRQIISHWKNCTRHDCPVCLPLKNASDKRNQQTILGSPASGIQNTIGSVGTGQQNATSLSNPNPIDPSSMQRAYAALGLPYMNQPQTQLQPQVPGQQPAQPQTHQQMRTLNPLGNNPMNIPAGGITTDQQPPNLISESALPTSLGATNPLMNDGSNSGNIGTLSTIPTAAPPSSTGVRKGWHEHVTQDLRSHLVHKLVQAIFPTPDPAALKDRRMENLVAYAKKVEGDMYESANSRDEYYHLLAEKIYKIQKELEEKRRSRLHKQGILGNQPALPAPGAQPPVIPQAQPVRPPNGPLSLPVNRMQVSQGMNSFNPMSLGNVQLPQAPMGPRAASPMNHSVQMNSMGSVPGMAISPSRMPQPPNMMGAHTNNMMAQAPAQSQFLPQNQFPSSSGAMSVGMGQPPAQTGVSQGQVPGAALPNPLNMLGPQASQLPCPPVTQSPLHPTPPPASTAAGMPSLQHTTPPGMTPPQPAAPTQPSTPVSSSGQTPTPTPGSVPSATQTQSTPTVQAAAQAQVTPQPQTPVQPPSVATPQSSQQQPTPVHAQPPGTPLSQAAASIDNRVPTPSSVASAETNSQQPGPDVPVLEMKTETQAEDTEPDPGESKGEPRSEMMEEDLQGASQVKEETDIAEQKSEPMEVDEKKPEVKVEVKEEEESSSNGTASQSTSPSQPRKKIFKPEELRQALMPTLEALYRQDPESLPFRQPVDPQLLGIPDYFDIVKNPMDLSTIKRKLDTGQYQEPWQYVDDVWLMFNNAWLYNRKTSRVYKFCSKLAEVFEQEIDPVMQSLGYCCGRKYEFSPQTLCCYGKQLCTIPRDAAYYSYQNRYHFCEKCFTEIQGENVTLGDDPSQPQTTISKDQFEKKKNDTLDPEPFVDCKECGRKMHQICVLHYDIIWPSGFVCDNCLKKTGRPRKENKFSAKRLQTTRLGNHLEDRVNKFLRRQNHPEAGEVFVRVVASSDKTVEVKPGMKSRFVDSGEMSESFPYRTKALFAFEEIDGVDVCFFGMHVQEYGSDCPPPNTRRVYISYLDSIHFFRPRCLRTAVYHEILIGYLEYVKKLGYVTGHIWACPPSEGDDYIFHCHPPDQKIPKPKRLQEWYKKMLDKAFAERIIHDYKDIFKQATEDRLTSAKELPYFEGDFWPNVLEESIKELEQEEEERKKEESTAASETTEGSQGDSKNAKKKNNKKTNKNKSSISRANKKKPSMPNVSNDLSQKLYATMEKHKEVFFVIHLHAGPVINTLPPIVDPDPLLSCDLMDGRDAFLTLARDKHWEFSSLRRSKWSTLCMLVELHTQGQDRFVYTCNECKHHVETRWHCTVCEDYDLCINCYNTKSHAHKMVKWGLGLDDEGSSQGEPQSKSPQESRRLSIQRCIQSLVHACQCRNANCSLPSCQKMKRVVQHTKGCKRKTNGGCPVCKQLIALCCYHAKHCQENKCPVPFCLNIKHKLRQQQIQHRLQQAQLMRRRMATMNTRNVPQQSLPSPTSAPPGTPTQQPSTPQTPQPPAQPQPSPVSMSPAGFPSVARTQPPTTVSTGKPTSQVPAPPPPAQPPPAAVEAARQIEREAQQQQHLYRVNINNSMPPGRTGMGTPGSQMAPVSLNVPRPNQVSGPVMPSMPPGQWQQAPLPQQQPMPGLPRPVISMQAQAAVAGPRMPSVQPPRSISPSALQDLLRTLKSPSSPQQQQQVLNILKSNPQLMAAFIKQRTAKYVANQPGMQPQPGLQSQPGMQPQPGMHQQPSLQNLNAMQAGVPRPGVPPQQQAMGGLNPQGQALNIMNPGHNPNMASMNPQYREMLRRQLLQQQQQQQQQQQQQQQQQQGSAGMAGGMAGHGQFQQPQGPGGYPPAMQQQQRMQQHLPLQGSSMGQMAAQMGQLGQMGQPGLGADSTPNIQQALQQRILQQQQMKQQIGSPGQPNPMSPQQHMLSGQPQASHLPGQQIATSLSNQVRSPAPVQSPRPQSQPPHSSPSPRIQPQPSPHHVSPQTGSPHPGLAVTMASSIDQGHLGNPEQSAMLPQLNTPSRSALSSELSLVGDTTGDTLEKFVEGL
Histone acetyltransferase p300, sequence (Q09472 whole entry): as the sequence (Q09472 whole entry, looked up) above
CREB-binding protein, sequence (Q92793 whole entry): as the sequence (Q92793 whole entry, looked up) above

Question: How did the IC50 [1] turn out when `CN1C(=O)/C(=C/c2ccc(N3CCOCC3)o2)C(=O)NC1=S` was run?
Answer: > 50 µM

Question: How did the IC50 [2] turn out when `CCCCCCCCCCCCCCCc1cccc(O)c1C(=O)O` [ANACARDIC ACID] was run?
Answer: 64 µM

Question: Which IC50 [1] does the source give for `CN1C(=O)/C(=C/c2c[nH]c3ccccc23)C(=O)NC1=S` here?
Answer: > 50 µM

Question: How did the IC50 [1] turn out when `Cc1ccc(N2C(=O)/C(=C\C=C\c3ccco3)C(=O)NC2=S)cc1Cl` was run?
Answer: 0.7 µM

Question: And the inhibition [3]?
Answer: Active

Question: And the inhibition [4]?
Answer: Active

Question: And the inhibition [5]?
Answer: Dose-dependent effect

Question: What about the inhibition [6] of the same compound?
Answer: Active

Question: What about the IC50 (Jurkat) of the same compound?
Answer: 2.2 µM

Question: And the Activity (MV4-11 [7])?
Answer: Dose-dependent effect

Question: And the inhibition [8]?
Answer: Active

Question: What about the IC50 (CCRF-CEM) of the same compound?
Answer: 3.8 µM

Question: What about the TGI (MV4-11 [9]) of the same compound?
Answer: Dose-dependent effect

Question: And the Activity (MV4-11 [10])?
Answer: Dose-dependent effect

Question: What about the inhibition [11] of the same compound?
Answer: Active

Question: And the IC50 (KOPN-8)?
Answer: 5.9 µM

Question: And the Activity (MV4-11 [12])?
Answer: Dose-dependent effect

Question: What about the IC50 (MOLT-3) of the same compound?
Answer: 2.7 µM

Question: And the inhibition [13]?
Answer: Active

Question: What about the IC50 (CREB-binding protein) of the same compound?
Answer: 3.2 µM

Question: And the IC50 (THP-1)?
Answer: 3 µM

Question: What about the inhibition [14] of the same compound?
Answer: Dose-dependent effect

Question: And the inhibition [15]?
Answer: Active

Question: And the IC50 (Kasumi 1)?
Answer: 1.9 µM

Question: What about the IC50 (K562) of the same compound?
Answer: 3.1 µM

Question: What about the inhibition [16] of the same compound?
Answer: Active

Question: What about the inhibition [17] of the same compound?
Answer: Active

Question: What about the Activity (MV4-11 [18]) of the same compound?
Answer: Dose-dependent effect

Question: What about the inhibition [19] of the same compound?
Answer: Active

Question: And the Activity (MV4-11 [20])?
Answer: >=60%

Question: What about the IC50 (RS4-11) of the same compound?
Answer: 4.7 µM

Question: And the inhibition [21]?
Answer: Active

Question: And the IC50 (MV4-11 [22])?
Answer: 1.1 µM

Question: And the inhibition [23]?
Answer: Active

Question: And the Activity (MV4-11 [24])?
Answer: Active

Question: What about the Activity (MV4-11 [25]) of the same compound?
Answer: Dose-dependent effect

Question: What about the IC50 (MOLT-4) of the same compound?
Answer: 3.5 µM

Question: And the Activity (MV4-11 [26])?
Answer: Dose-dependent effect

Question: And the inhibition [27]?
Answer: Active

Question: And the inhibition [28]?
Answer: Active

Question: And the inhibition [29]?
Answer: Active

Question: And the inhibition [30]?
Answer: Active

Question: What about the inhibition [31] of the same compound?
Answer: Active

Question: What about the inhibition [32] of the same compound?
Answer: Active

Question: For `CN1C(=O)/C(=C/c2ccccc2)C(=O)NC1=S`, which IC50 [1] is on record?
Answer: 45 µM

Question: And the inhibition [33]?
Answer: inactive

Question: What about the inhibition [34] of the same compound?
Answer: inactive

Question: And the IC50 (MV4-11 [22])?
Answer: > 100 µM

Question: Which IC50 [1] does the source give for `CN1C(=O)/C(=C/c2ccncc2)C(=O)NC1=S` here?
Answer: > 50 µM

Question: Which IC50 [1] does the source give for `Cc1cc(/C=C2\C(=O)NC(=S)N(C)C2=O)c(C)n1C` here?
Answer: 14 µM
